According to patent US8871735B2, “Methods and compositions for providing cardiac protection” (University of Medicine and Dentistry of New Jersey, priority 2008, dated 2014):
“Also recorded” adds a separate entry of the source.

Assays:
mice = test: Basal cardiac function (echocardiography) under chronic drug infusion alone; format: in vivo, mouse; details: chronic infusion of drug alone (3 days to 1 week)
Source text: (§1) ISO with or without AC5 inhibitors were chronically infused with osmotic mini-pump implanted subcutaneously at indicated doses for 1 week in c57Bl/6 mice. Mice were then subjected to echocardiography (a) and the hearts were removed and subjected to pathological examinations such as myocardial apoptosis (b) and fibrosis (c). n=4-8.
(§2) In C57Bl/6 mice, ISO with or without AC5 inhibitors or metoprolol were chronically infused with an osmotic mini-pump at the indicated doses for 1 week. Mice were then subjected to echocardiography (a) and heart tissue were subjected to a myocardial apoptosis assay (b). *, p<0.01 vs vehicle. #, p<0.05 vs vehicle. .dagger., p<0.01 vs ISO. .dagger-dbl., p<0.05 vs ISO. n=4-15. […] Comparisons between multiple groups were made using ANOVA with post-hoc tests.
Mice were anesthetized with 2.5% tribromoethanol (0.010 to 0.015 mL per gram of body weight) injected intraperitoneally, and echocardiography was performed with ultrasonography (ACUSON Sequoia C256, Siemens Medical Solutions, Malvern, Pa.). For acute injection of isoproterenol, forskolin and milrinon, a PE-10 catheter was inserted into the right jugular vein, and drugs were injected at the rate of 1 μl/s. cAMP accumulation assay in H9C2 cells, a cardiac myoblast cell line, was examined as previously described. […]

[1] = system: C57Bl/6 mice, chronic ISO infusion; test: Chronic ISO infusion heart failure model; format: in vivo, mouse
Source text: as §1, §2
Tenofovir diphosphate (PMPA-PP), zidovudine monophosphate (MP), zidovudine diphosphate (PP), zidovudine triphosphate (TP), famciclovir penciclovir and valaciclovir were purchased from Moravek. Formycin A (FMA) and Formycin B (FMB) were purchased from Berry and Associates. All other reagents were from Sigma unless specified. Long-term infusion of isoproterenol (Sigma, St. Louis, Mo.) was performed for 7 days at a dose of 60 mg/kg/d with or without AC5 inhibitors by using a miniosmotic pump (ALZET model 2001, DURECT Corp, Cupertino, Calif.). Control mice received vehicle in pumps. Pumps were removed 24 hours before biochemical and physiological studies. Experiments were performed in 3- to 5-month-old male C57Bl/6, and in AC5Tg transgenic mice. This study was approved by the Animal Care and Use Committee at New Jersey Medical School.
Mice were anesthetized with 2.5% tribromoethanol (0.010 to 0.015 mL per gram of body weight) injected intraperitoneally, and echocardiography was performed with ultrasonography (ACUSON Sequoia C256, Siemens Medical Solutions, Malvern, Pa.). For acute injection of isoproterenol, forskolin and milrinon, a PE-10 catheter was inserted into the right jugular vein, and drugs were injected at the rate of 1 μl/s. cAMP accumulation assay in H9C2 cells, a cardiac myoblast cell line, was examined as previously described.

Nc1ncnc2c1ncn2[C@@H]1O[C@H](CO)[C@@H](O)[C@@H]1O [Ara-Ade, 9-β-D-arabinofuranosyladenine]
basal LVEF (mice): did not change LVEF; also recorded: did not affect basal LVEF | ISO-induced decrease in LVEF (and FS) ([1]; ISO 60 mg/kg/d 7 days, Ara-Ade 20 and 100 mg/kg/day, 2′5′ ddAdo 20 mg/kg/day): rescued LVEF and FS reduction | ISO-induced cardiac fibrosis ([1]; chronic ISO infusion): significantly inhibited | ISO-induced myocardial apoptosis in vivo ([1]; chronic ISO infusion): significantly inhibited | ISO-induced wall thickening (DESP, DPW) ([1]; chronic ISO infusion): neither Ara-Ade nor 2′5′ ddAdo inhibited | LVW/BW and myocyte cross sectional area ([1]; chronic ISO infusion): increased | survival rate during 1-week chronic ISO ([1]; vs vehicle): higher
